From patent US11925672B2, “Peptide having antioxidant activity and composition containing same” (SEMPIO FOODS COMPANY, priority 2018, dated 2024) come the findings set out here.

Entries after “also recorded” stand apart in the source; their conditions may differ. Numbered stars: 1 amine (or outer) side, 2 acyl side, 3 side chain; on linkers, the order of the positions; unused ones are H or OH. Square brackets hold non-standard residues; d marks the D form. Ends that are not written are not given here. γGlu = O=C(O)[C@H](CCC(=O)[*:2])N[*:1]; Orn = NCCC[C@H](N)C(=O)O; Abu = CC[C@H](N)C(=O)O

Experiment [1] concerns Nrf2 mRNA. Briefly: Nrf2 mRNA expression level by real-time PCR in Tert-BHP-treated HEK293 cells. Format: cell-based. The note with it: Tert-BHP 300 μM, peptide 500 μM, 18 hours; for effect on expression of Nrf2 mRNA: FIGS. 5A to 5C; for Nrf2 mRNA expression compared to positive control GSH: vs GSH. On the procedure: In the present invention, the antioxidant activity was compared between the 100 types of peptides, and the change in Nrf2 mRNA expression was measured through PCR in order to select the final peptide.
An HEK293 cell (kidney cell) line was seeded at a density of 6.6×10^5/well in DMEM (Dulbecco's Modified Eagle's Medium) medium on a 6-well plate and cultured at 37° C. under 5% CO2 for 24 hours. The next day, the medium was exchanged with serum and amino-acid-free media, and then the cells were further cultured for 20 hours or longer. The cells were treated with Tert-BHP (300 μM) and 500 μM 100 types of peptides, and then cultured for 18 hours.
RNA was extracted from the cells treated with 100 types of peptides in (1) using TRIzol (Thermo Fisher Scientific). A GoScript™ Reverse Transcription System (Promega, Wisconsin, USA) was used to synthesize cDNA from the RNA. The cDNA was synthesized by performing annealing using 1 μg of RNA, 0.5 μg of an oligo dt primer, 0.5 μg of a random primer and RT-PCR pre-mixture at 25° C. for 5 minutes, extension at 42° C. for 60 minutes, and inactivation at 70° C. for 15 minutes.
(§1) PCR was performed using Maxime™ PCR PreMix (i-StarTaq) (Intron Biotechnology, Korea). Real-time PCR was performed using SsoAdvanced™ Universal SYBR® Green Supermix (Bio-Rad, USA). 100 ng of cDNA, 2 μM (pmol/μl) primers, 10 μl of 2X SsoAdvanced™ Universal SYBR® Green Supermix and DW were added to the PCR plate well. Then, the temperature was cyclically adjusted to 95° C. for 3 minutes, 95° C. for 10 seconds and 58° C. for 40 seconds for a total of 40 cycles. A PCR reaction was performed using a CFX96 Touch™ Real-Time PCR Detection System (Bio-Rad, California, USA), and fluorescence intensity was measured at the end of each cycle.

Experiment [2] has as its system SOD2 mRNA. The experiment in a line: SOD2 mRNA expression level by real-time PCR in Tert-BHP-treated HEK293 cells. Format: cell-based. The note with it: Tert-BHP 300 μM, peptide 500 μM, 18 hours; for effect on SOD2 mRNA expression: FIG. 6; for SOD2 mRNA expression compared to positive control GSH: vs GSH. On the procedure: The expression of SOD2 mRNA as another antioxidant factor was determined. The cell line culture, RNA extraction, cDNA synthesis and PCR experiments were performed in the same manner as in Experimental Example 5 above. A detailed description thereof is given below.
An HEK293 cell (kidney cell) line was seeded at a density of 6.6×10^5/well in DMEM (Dulbecco's Modified Eagle's Medium) medium on a 6-well plate and cultured at 37° C. and 5% CO2 for 24 hours. The next day, the medium was exchanged with serum and amino-acid-free media, and then the cells were further cultured for 20 hours or longer. The cells were treated with Tert-BHP (300 μM) and 500 μM 100 types of peptides, and then cultured for 18 hours.
RNA was extracted from the cells treated with 100 types of peptides in (1) using TRIzol (Thermo Fisher Scientific). A GoScript™ Reverse Transcription System (Promega, Wisconsin, USA) was used to synthesize cDNA from the RNA. The cDNA was synthesized by performing annealing with 1 μg RNA, 0.5 μg of an oligo dt primer, 0.5 μg of a random primer, and RT-PCR pre-mixture at 25° C. for 5 minutes, extension at 42° C. for 60 minutes, and inactivation at 70° C. for 15 minutes.
as §1, with “using the” for “using a”
Background: Real-time PCR tracks product formation cycle by cycle.

Regarding “γ-GLU-VAL-PRO ([γGlu]-Val-Pro; also: gamma-glutamyl isopeptide bond (Glu side chain to Val))”, the “effect on expression of Nrf2 mRNA” value in experiment [1] was “improve the expression of Nrf2 mRNA”. In addition, in experiment [2], the “effect on SOD2 mRNA expression” value was “increased SOD2 mRNA expression”.
Turning to γ-GLU-LEU-GLY ([γGlu]-Leu-Gly), the “effect on expression of Nrf2 mRNA” value in experiment [1] was “improve the expression of Nrf2 mRNA”.
Regarding “γ-GLU-VAL-ASP ([γGlu]-Val-Asp; also: gamma-glutamyl isopeptide bond (Glu side chain to Val))”, in experiment [1], the “effect on expression of Nrf2 mRNA” value is listed as “improve the expression of Nrf2 mRNA” and the “Nrf2 mRNA expression compared to positive control GSH” value was “remarkably excellent effect; also recorded: statistically significant activity”. In experiment [2], the “effect on SOD2 mRNA expression” value is “increased SOD2 mRNA expression” and the “SOD2 mRNA expression compared to positive control GSH” value is “remarkably excellent; also recorded: statistically significant activity”.
Turning to “γ-GLU-VAL-GLY ([γGlu]-Val-Gly; also: gamma-glutamyl isopeptide bond (Glu side chain to Val))”, in experiment [1], the “effect on expression of Nrf2 mRNA” value was “improve the expression of Nrf2 mRNA”. In addition, in experiment [2], the “effect on SOD2 mRNA expression” value is listed as “increased SOD2 mRNA expression” and the “SOD2 mRNA expression compared to positive control GSH” value was “remarkably excellent”.
Regarding “γ-GLU-VAL-ORN ([γGlu]-Val-[Orn]; also: γ-peptide bond from Glu side chain carboxyl to Val)”, the “effect on expression of Nrf2 mRNA” value in experiment [1] is on record as “improve the expression of Nrf2 mRNA”. Moreover, the “effect on SOD2 mRNA expression” value in experiment [2] was “increased SOD2 mRNA expression”.
Turning to β-GLU-HIS, the “effect on expression of Nrf2 mRNA” value in experiment [1] is “no effect”.
As for “γ-GLU-VAL-VAL ([γGlu]-Val-Val; also: gamma-glutamyl isopeptide bond (Glu side chain to Val))”, the “effect on expression of Nrf2 mRNA” value in experiment [1] was “improve the expression of Nrf2 mRNA”. In experiment [2], the “effect on SOD2 mRNA expression” value is “increased SOD2 mRNA expression”.
Turning to “γ-GLU-CYS(S-Me)-GLY ([γGlu]-Cys(Me)-Gly)”, in experiment [1], the “effect on expression of Nrf2 mRNA” value was “improve the expression of Nrf2 mRNA”.
With “γ-GLU-VAL-GLU ([γGlu]-Val-Glu; also: gamma-glutamyl isopeptide bond (Glu side chain to Val))”, in experiment [1], the “effect on expression of Nrf2 mRNA” value is “improve the expression of Nrf2 mRNA” and the “Nrf2 mRNA expression compared to positive control GSH” value is given as “remarkably excellent effect; also recorded: statistically significant activity”. Also, in experiment [2], the “effect on SOD2 mRNA expression” value is listed as “increased SOD2 mRNA expression” and the “SOD2 mRNA expression compared to positive control GSH” value is recorded as “remarkably excellent; also recorded: statistically significant activity”.
The like results for “γ-GLU-VAL-ARG ([γGlu]-Val-Arg; also: gamma-glutamyl isopeptide bond (Glu side chain to Val))” were, in that order, “improve the expression of Nrf2 mRNA”, “remarkably excellent effect; also recorded: statistically significant activity”, “increased SOD2 mRNA expression” and “remarkably excellent; also recorded: statistically significant activity”.
With “γ-GLU-VAL-MET ([γGlu]-Val-Met; also: gamma-glutamyl isopeptide bond (Glu side chain to Val))”, in experiment [1], the “effect on expression of Nrf2 mRNA” value was “improve the expression of Nrf2 mRNA” and the “Nrf2 mRNA expression compared to positive control GSH” value is reported as “remarkably excellent effect; also recorded: statistically significant activity”. In experiment [2], the “effect on SOD2 mRNA expression” value is given as “increased SOD2 mRNA expression” and the “SOD2 mRNA expression compared to positive control GSH” value was “remarkably excellent; also recorded: statistically significant activity”.
As for γ-GLU-ILE-GLY ([γGlu]-Ile-Gly), in experiment [1], the “effect on expression of Nrf2 mRNA” value is reported as “improve the expression of Nrf2 mRNA” and the “Nrf2 mRNA expression compared to positive control GSH” value is recorded as “remarkably excellent effect; also recorded: statistically significant activity”. Besides, in experiment [2], the “effect on SOD2 mRNA expression” value was “increased SOD2 mRNA expression” and the “SOD2 mRNA expression compared to positive control GSH” value is on record as “remarkably excellent; also recorded: statistically significant activity”.
Take “γ-GLU-ALA-GLY (Glu-Ala-Gly; not fully specified (residue 1); printed as γ-GLU-ALA-GLY)”: the “effect on expression of Nrf2 mRNA” value in experiment [1] was “improve the expression of Nrf2 mRNA”.
On to “γ-GLU-SER-GLY ([γGlu]-Ser-Gly; also: gamma-glutamyl isopeptide bond (Glu side chain to Ser))”, for which, in experiment [1], the “effect on expression of Nrf2 mRNA” value is on record as “improve the expression of Nrf2 mRNA” and the “Nrf2 mRNA expression compared to positive control GSH” value is reported as “statistically significant activity”. Further, the “SOD2 mRNA expression compared to positive control GSH” value in experiment [2] was “remarkably excellent; also recorded: statistically significant activity”.
Consider “γ-GLU-VAL-ASN ([γGlu]-Val-Asn; also: gamma-glutamyl isopeptide bond (Glu side chain to Val))”, for which, in experiment [1], the “effect on expression of Nrf2 mRNA” value is listed as “improve the expression of Nrf2 mRNA” and the “Nrf2 mRNA expression compared to positive control GSH” value is on record as “remarkably excellent effect; also recorded: statistically significant activity”. For the same substance, in experiment [2], the “effect on SOD2 mRNA expression” value is on record as “increased SOD2 mRNA expression” and the “SOD2 mRNA expression compared to positive control GSH” value is “remarkably excellent; also recorded: statistically significant activity”.
Regarding γ-GLU-GLU-GLU ([γGlu]-Glu-Glu), in experiment [1], the “effect on expression of Nrf2 mRNA” value is “improve the expression of Nrf2 mRNA”.
Consider “γ-GLU-Abu-GLY ([γGlu]-[Abu]-Gly; also: γ-peptide bond from Glu side chain carboxyl to Abu)”, for which the “effect on expression of Nrf2 mRNA” value in experiment [1] is “improve the expression of Nrf2 mRNA”. For the same substance, in experiment [2], the “effect on SOD2 mRNA expression” value is on record as “increased SOD2 mRNA expression” and the “SOD2 mRNA expression compared to positive control GSH” value is “remarkably excellent”.
For γ-GLU-PRO-GLY ([γGlu]-Pro-Gly), in experiment [1], the “effect on expression of Nrf2 mRNA” value is given as “improve the expression of Nrf2 mRNA” and the “Nrf2 mRNA expression compared to positive control GSH” value is reported as “remarkably excellent effect; also recorded: statistically significant activity”. In experiment [2], the “effect on SOD2 mRNA expression” value is reported as “increased SOD2 mRNA expression” and the “SOD2 mRNA expression compared to positive control GSH” value was “remarkably excellent; also recorded: statistically significant activity”.
Consider “γ-GLU-VAL-ALA ([γGlu]-Val-Ala; also: gamma-glutamyl isopeptide bond (Glu side chain to Val))”, for which, in experiment [1], the “effect on expression of Nrf2 mRNA” value was “improve the expression of Nrf2 mRNA”. The “effect on SOD2 mRNA expression” value in experiment [2] is “increased SOD2 mRNA expression”.
As for “γ-GLU-VAL-PHE ([γGlu]-Val-Phe; also: gamma-glutamyl isopeptide bond (Glu side chain to Val))”, in experiment [1], the “effect on expression of Nrf2 mRNA” value is reported as “improve the expression of Nrf2 mRNA” and the “Nrf2 mRNA expression compared to positive control GSH” value is on record as “remarkably excellent effect; also recorded: statistically significant activity”. Besides, in experiment [2], the “effect on SOD2 mRNA expression” value is reported as “increased SOD2 mRNA expression” and the “SOD2 mRNA expression compared to positive control GSH” value is on record as “remarkably excellent; also recorded: statistically significant activity”.
On to γ-GLU-ORN, for which, in experiment [1], the “effect on expression of Nrf2 mRNA” value is recorded as “improve the expression of Nrf2 mRNA” and the “Nrf2 mRNA expression compared to positive control GSH” value is “comparable or superior”.
